{
  "source": "patent US5714467A",
  "about": "“Antibacterial and antimalarial hybrid peptides” (The Rockefeller University, priority 1993, dated 1998)",
  "key": {"S. aureus": {"system": "S. aureus", "test": "microdilution broth assay (NCCLS M7-A1), aerobes", "type": "cell-based, Staphylococcus aureus", "details": "14 strains", "description": "(§1) Antimicrobial susceptibility testing was performed using a microdilution broth assay according to the guidelines of the National Committee for Clinical Laboratory Standards (NCCLS) Document M7-A1 (NCCLS. 1990).\n(§2) The peptide powder as an acetate salt was weighted on an analytical balance and transferred to a polypropylene tube. A solution was prepared at a concentration of 1.024 mg/ml by dissolving the powder in autoclaved (121° C., 20 psi, 20 minutes) deionized water. The peptide solution was used immediately, stored for up to ten days at 4° C., or stored long-term at -70° C. in 1 ml aliquots in polypropylene cryovials.\n(§3) Mueller-Hinton broth (MHB) (BBL catalog number 11443) was used in the microtiter plates for diluting the peptide stock solution and for diluting the bacterial inoculum. […]\n(§4) Inoculum was prepared by taking a sample of bacteria from a 16-20 hours plate culture and inoculating into 5 ml of (MHB) (BBL catalog number 95834) to an absorbance reading of approximately 0.02 at 600 nm (Ab600) on a BECKMAN® DU-64 spectrophotometer. The culture was incubated at 35°-37° C. with shaking (New Brunswick incubator shaker Model G25) and the growth monitored spectrophotometrically until it reached mid-logarithmic phase (Ab600 of approximately 0.06). This absorbance represents approximately 1×10^8 colony-forming units per milliliter (CFUs/ml). […]"}, "Acinetobacter": {"system": "Acinetobacter", "test": "microdilution broth assay (NCCLS M7-A1), aerobes", "type": "cell-based", "details": "12 strains", "description": "as §1, §2\n(§5) Mueller-Hinton broth (MHB) (BBL catalog number 11443) was used in the microtiter plates for diluting the peptide stock solution and for diluting the bacterial inoculum. MBH 5 ml prepared tubes (BBL catalog number 95834) were used to culture an overnight plate of bacteria to the logarithmic phase of growth for inoculating the microtiter plates.\n(§6) Inoculum was prepared by taking a sample of bacteria from a 16-20 hours plate culture and inoculating into 5 ml of (MHB) (BBL catalog number 95834) to an absorbance reading of approximately 0.02 at 600 nm (Ab600) on a BECKMAN® DU-64 spectrophotometer. The culture was incubated at 35°-37° C. with shaking (New Brunswick incubator shaker Model G25) and the growth monitored spectrophotometrically until it reached mid-logarithmic phase (Ab600 of approximately 0.06). This absorbance represents approximately 1×10^8 colony-forming units per milliliter (CFUs/ml). The culture was then diluted to approximately 1×10^6 CFUs/ml in autoclaved MHB (BBL catalog number 11443) to produce the inoculum. A sample of the inoculating culture was diluted in 3 mM phosphate buffer (pH 7.2) through a series of 1:10 dilutions and the 10^-4 and 10^-5 dilutions were plated, incubated overnight at 35°-37° C., and counted the next day to verify inoculum size.\n(§7) Microtiter plates (Corning manufacturer number 2585096) were prepared with the use of the BECKMAN® Biomek 1000 (Beckman Instruments, Somerset, N.J.) automated laboratory workstation in combination with manual techniques. The microtiter plate was filled with diluent broth using the Biomek 1000 instrument. Peptide stock solution was manually added to the top drug well of the microtiter plate using a Rainin Pipetman Model P-200. The peptide was serially diluted in two-fold dilutions using the Biomek 1000 instrument. One hundred microliters of the standardized bacterial inoculum was added to every well of the microtiter plates (except the blanks) using an Eppendorf Repeater Model 4780 pipet equipped with an Eppendorf 5 ml combitip (catalog number 22 26 130-4).\n(§8) The final concentrations of peptide solution in the wells ranged from 0.25 ug/ml to 256 ug/ml. The final concentration of bacteria in the wells was 1-5×10^5 CFUs/ml. The final volume in the wells was 200 μl.\n(§9) The microtiter plates were incubated overnight (16-20 hours) at 35°-37° C. in a Precision mechanical convection oven incubator Model 30M. Plates were not stacked more than four high."}, "Group A Streptococcus": {"system": "Group A Streptococcus", "test": "microdilution broth assay (NCCLS M7-A1), aerobes", "type": "cell-based", "details": "15 strains", "description": "as §1, §2, §5, §6, §7, §8, §9"}, "Streptococcus pneumoniae": {"system": "Streptococcus pneumoniae", "test": "microdilution broth assay (NCCLS M7-A1), aerobes", "type": "cell-based", "details": "11 strains", "description": "as §1, §2, §5, §6, §7, §8, §9"}, "Xanthomonas": {"system": "Xanthomonas", "test": "microdilution broth assay (NCCLS M7-A1), aerobes", "type": "cell-based", "details": "12 strains", "description": "as §1, §2, §5, §6, §7, §8, §9"}, "s. epidermidis": {"system": "s. epidermidis", "test": "microdilution broth assay (NCCLS M7-A1), aerobes", "type": "cell-based", "details": "12 strains", "description": "as §1, §2, §5, §6, §7, §8, §9"}, "p. aeruginosa": {"system": "p. aeruginosa", "test": "microdilution broth assay (NCCLS M7-A1), aerobes", "type": "cell-based, Pseudomonas aeruginosa", "details": "13 strains", "description": "as §1, §2, §3, §4"}, "T. mentagrophytes": {"system": "T. mentagrophytes", "test": "microdilution broth assay, dermatophytes", "type": "cell-based", "details": "M3 broth", "description": "(§10) Antimicrobial susceptibility testing was performed using a microdilution broth assay as with the aerobes.\n(§11) Antibiotic medium 3 (M3) (BBL catalog number 10932) was used in the microtiter plates for diluting the peptide stock solution and for diluting the bacterial inoculum.\n(§12) The dermatophyte cultures were grown on Potato Dextrose Agar for one week. A one centimeter square of growth is teased from the leading edge of the fungus and placed in 2 ml of sterile water in a screw-capped glass tube with glass beads (2 mm) on the bottom. The tubes were vortexed for 20 seconds each and placed in a shaker incubator (New Brunswick incubator shaker Model G25) at 37° C. for 30 minutes. Tubes were removed from the shaker incubator and allowed to settle for 10 minutes. The supernatant was read on a BECKMAN® DU-64 spectrophotometer at 530 nm for percent transmission and adjusted with M3 broth to a transmission of 65%. This culture was then diluted 1:10 in M3 broth for inoculating the microtiter plates.\n(§13) The microtiter plates were incubated for 48 hours at 30° C. in a PRECISION® mechanical convection oven incubator Model 4. Plates are never stacked more than four high.\n(§14) Candida albicans, a yeast was used for comparison."}, "T. rubrum ATCC 36262": {"system": "T. rubrum ATCC 36262", "test": "microdilution broth assay, dermatophytes", "type": "cell-based", "details": "48 hours at 30° C., M3 broth", "description": "as §10, §11, §12, §13, §14"}, "C. albicans ATCC 14053": {"system": "C. albicans ATCC 14053", "test": "microdilution broth assay, dermatophytes (yeast for comparison)", "type": "cell-based, Candida albicans", "details": "48 hours at 30° C., M3 broth", "description": "as §10, §11, §12, §13, §14"}, "Porphyromonas gingivalis": {"system": "Porphyromonas gingivalis", "test": "anaerobic microdilution broth assay (NCCLS M11-T2), oral pathogen", "type": "cell-based", "description": "(§15) Antimicrobial susceptibility testing was performed using a microdilution broth assay according to the guidelines of the National Committee for Clinical Laboratory Standards (NCCLS) Document M11-T2 (NCCLS, 1989).\n(§16) One-half strength Brain Heart Infusion (BHI) (BBL catalog number 11059) supplemented with hemin and menadione is used in the microtiter plates for diluting the peptide stock solution and for diluting the bacterial inoculum.\n(§17) Inoculum is prepared by culturing bacteria from an overnight plate in 5 ml of supplemented BHI. The next day the overnight broth culture is read on a BECKMAN® DU-64 spectrophotometer at 630 nm and diluted with supplemented BHI until an absorbance of 0.02 is reached which represents approximately 1×10^6 colony-forming units per milliliter (CFUs/ml). This culture is used to inoculate the microtiter plates. A sample of the inoculating culture is diluted in supplemented BHI through a series of 1:10 dilutions and the 10^-5 and 10^-6 dilutions are plated, incubated 48 hours at 35°-37° C. anaerobically, and counted to verify inoculum size.\n(§18) The microtiter plates are incubated anaerobically for 48 hours at 35°-37° C. in a COY® anaerobic chamber Type A. Plates are never stacked more than four high."}, "E. coli ATCC 25922": {"system": "E. coli ATCC 25922", "test": "anaerobic microdilution broth assay (NCCLS M11-T2), standard organism", "type": "cell-based, Escherichia coli", "details": "standard in the P. gingivalis test, anaerobic 48 hours", "description": "as §15, §16, §17, §18\nE. coli ATCC 25922 was used as a standard."}},
  "data": [
    {"substance": "Gly-Ile-Gly-Lys-Phe-Leu-Lys-Lys-Ala-Lys-Lys-Gly-Ile-Gly-Ala-Val-Leu-Lys-Val-Leu-Thr-Thr-Gly-Leu", "values": [
      {"measurement": "MIC RANGE, S. aureus", "setting": "S. aureus", "result": "2 to 4", "unit": "µg/mL"},
      {"measurement": "MIC RANGE, Acinetobacter", "setting": "Acinetobacter", "result": "2 to 4", "unit": "µg/mL"},
      {"measurement": "MIC RANGE, Group A Streptococcus", "setting": "Group A Streptococcus", "result": "2 to 4", "unit": "µg/mL"},
      {"measurement": "MIC RANGE, Streptococcus pneumoniae", "setting": "Streptococcus pneumoniae", "result": "8 to 16", "unit": "µg/mL"},
      {"measurement": "MIC RANGE, Xanthomonas", "setting": "Xanthomonas", "result": "2 to 8", "unit": "µg/mL"},
      {"measurement": "MIC RANGE, s. epidermidis", "setting": "s. epidermidis", "result": "2 to 4", "unit": "µg/mL"},
      {"measurement": "MIC RANGE, p. aeruginosa", "setting": "p. aeruginosa", "result": "2 to 32", "unit": "µg/mL"},
      {"measurement": "MIC, T. mentagrophytes ATCC 4808", "setting": "T. mentagrophytes; strain ATCC 4808, 48 hours at 30° C.", "result": 16, "unit": "µg/mL"},
      {"measurement": "MIC, T. mentagrophytes ATCC 18748", "setting": "T. mentagrophytes; strain ATCC 18748, 48 hours at 30° C.", "result": 16, "unit": "µg/mL"},
      {"measurement": "MIC, T. rubrum ATCC 36262", "setting": "T. rubrum ATCC 36262", "result": 256, "unit": "µg/mL"},
      {"measurement": "MIC, C. albicans ATCC 14053", "setting": "C. albicans ATCC 14053", "result": 64, "unit": "µg/mL"},
      {"measurement": "MIC, P. gingivalis strain 9-14K-1", "setting": "Porphyromonas gingivalis; strain 9-14K-1, anaerobic 48 hours", "result": 16, "unit": "µg/mL"},
      {"measurement": "MIC, P. gingivalis strain 381", "setting": "Porphyromonas gingivalis; strain 381, anaerobic 48 hours", "result": 64, "unit": "µg/mL"},
      {"measurement": "MIC, P. gingivalis strain 2561", "setting": "Porphyromonas gingivalis; strain 2561, anaerobic 48 hours", "result": 16, "unit": "µg/mL"},
      {"measurement": "MIC, P. gingivalis strain A7A1-28", "setting": "Porphyromonas gingivalis; strain A7A1-28, anaerobic 48 hours", "result": 32, "unit": "µg/mL"},
      {"measurement": "MIC, P. gingivalis strain ATCC 33277", "setting": "Porphyromonas gingivalis; strain ATCC 33277, anaerobic 48 hours", "result": "64 to 128", "unit": "µg/mL"},
      {"measurement": "MIC, P. gingivalis strain ESO-127", "setting": "Porphyromonas gingivalis; strain ESO-127, anaerobic 48 hours", "result": "4 to 8", "unit": "µg/mL"},
      {"measurement": "MIC, P. gingivalis strain FAY-19M-1", "setting": "Porphyromonas gingivalis; strain FAY-19M-1, anaerobic 48 hours", "result": 16, "unit": "µg/mL"},
      {"measurement": "MIC, P. gingivalis strain VAG-1", "setting": "Porphyromonas gingivalis; strain VAG-1, anaerobic 48 hours", "result": 64, "unit": "µg/mL"},
      {"measurement": "MIC, P. gingivalis strain VAG-4", "setting": "Porphyromonas gingivalis; strain VAG-4, anaerobic 48 hours", "result": 32, "unit": "µg/mL"},
      {"measurement": "MIC, P. gingivalis strain W-50", "setting": "Porphyromonas gingivalis; strain W-50, anaerobic 48 hours", "result": 32, "unit": "µg/mL"},
      {"measurement": "MIC, E. coli ATCC 25922", "setting": "E. coli ATCC 25922", "result": 8, "unit": "µg/mL"}
    ]}
  ]
}
